Source: the supplement of paper PMC7840683
± gives the standard deviation of the averaged measurements.

System: HepaRG
Assay: LDH release cytotoxicity, % of total lysis control; higher = more cytotoxic
Details: 48 h
Method in brief: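 Single-lot HepaRG cells on collagen I-coated 96-well plates were exposed for 48 h in duplicate, in serum-free induction medium with 0.5% DMSO, to eight-point half-log series (test chemicals top 100 µM). Total lysis wells received 0.1% Triton X, and LDH leakage into 50 µL spent medium was read as resorufin fluorescence (CytoTox-ONE, Tecan Safire). Percent cytotoxicity was normalized to on-plate vehicle and total lysis controls and averaged over the duplicates.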

Row | SMILES | LDH release cytotoxicity (0.03162 µM) | LDH release cytotoxicity (0.1 µM) | LDH release cytotoxicity (0.3162278 µM) | LDH release cytotoxicity (1 µM) | LDH release cytotoxicity (3.16228 µM) | LDH release cytotoxicity (10 µM) | LDH release cytotoxicity (31.6228 µM) | LDH release cytotoxicity (100 µM) | LDH release cytotoxicity (0.0324133 µM) | LDH release cytotoxicity (0.1025 µM) | LDH release cytotoxicity (0.324134 µM) | LDH release cytotoxicity (1.025 µM) | LDH release cytotoxicity (3.24133 µM) | LDH release cytotoxicity (10.25 µM) | LDH release cytotoxicity (32.4133 µM) | LDH release cytotoxicity (102.5 µM)
1 | CCCCNC(=O)n1c(NC(=O)OC)nc2ccccc21 [Benomyl] | -1.36 ± 0.32% | -0.152 ± 0.59% | -0.651 ± 0.35% | -2.31 ± 0.2% | -1.18 ± 0.56% | 8.93 ± 2.2% | 8.73 ± 0.26% | 9.79 ± 0.95% |  |  |  |  |  |  |  | 
2 | CC(C)N1C(=O)c2ccccc2NS1(=O)=O [Bentazone] | -0.772 ± 0.46% | -0.547 ± 0.14% | 0.0696 ± 0.91% | -0.283 ± 0.7% | -0.149 ± 0.18% | 0.303 ± 0.12% | -0.174 ± 0.19% | 2.45 ± 1.1% |  |  |  |  |  |  |  | 
3 | c1ccc2cc3c(ccc4ccccc43)cc2c1 [Benz(a)anthracene] | 0.322 ± 0.091% | -1.2 ± 0.19% | -1.02 ± 0.054% | -1.2 ± 0.3% | -0.916 ± 0.025% | -0.353 ± 0.34% | -1.51 ± 0.18% | -1.17 ± 0.12% |  |  |  |  |  |  |  | 
4 | ClC(Cl)c1ccccc1 [Benzal chloride] | 0.273 ± 0.17% | -0.75 ± 0.78% | -0.461 ± 0.39% | -1.3 ± 1.2% | -1.29 ± 0.9% | 0.533 ± 0.9% | 1.06 ± 1.1% | 2.15 ± 0.29% |  |  |  |  |  |  |  | 
5 | Nc1ccc(-c2ccc(N)cc2)cc1 [Benzidine] | -0.869 ± 4.3% | -2.2 ± 0.13% | -3.09 ± 0.054% | -2.37 ± 0.27% | -2.3 ± 0.28% | 0.338 ± 4% | -0.733 ± 0.045% | 0.306 ± 0.029% |  |  |  |  |  |  |  | 
6 | c1ccc2c(c1)-c1cccc3c1c-2cc1ccccc13 [Benzo(b)fluoranthene] | -1.73 ± 0.79% | -2.8 ± 0.051% | -1.72 ± 0.55% | -2.85 ± 1% | -1.02 ± 0.32% | 1.06 ± 1.1% | 5.33 ± 2.5% | 5.52 ± 2.2% |  |  |  |  |  |  |  | 
7 | O=C(O)c1ccccc1 [Benzoic acid] |  |  |  |  |  |  |  |  | -0.341 ± 0.5% | -0.867 ± 1.3% | -1.11 ± 1.2% | -0.944 ± 0.73% | -0.925 ± 0.73% | 0.28 ± 0.2% | 0.174 ± 0.36% | 0.953 ± 0.28%
8 | ClC(Cl)(Cl)c1ccccc1 [Benzotrichloride] | -0.669 ± 1.1% | -1.85 ± 0.77% | -1.72 ± 0.38% | -1.748 ± 0.0065% | -1.92 ± 0.31% | -2.01 ± 0.6% | -1.18 ± 0.47% | -0.246 ± 0.61% |  |  |  |  |  |  |  | 
9 | OCc1ccccc1 [Benzyl alcohol] | -0.977 ± 0.76% | -1.47 ± 0.31% | -1.57 ± 1.4% | -2.41 ± 1.3% | -1.69 ± 0.91% | -1.73 ± 1.6% | -1.32 ± 1.4% | -1.07 ± 1.2% |  |  |  |  |  |  |  | 
10 | CCCCOC(=O)c1ccccc1C(=O)OCc1ccccc1 [Benzyl butyl phthalate] | -0.944 ± 0.033% | -1.99 ± 0.74% | -1.76 ± 0.079% | -1.14 ± 0.11% | -1.707 ± 0.0079% | -2.01 ± 0.3% | -0.748 ± 0.15% | 0.329 ± 0.83% |  |  |  |  |  |  |  | 
11 | CCCCC(CC)COC(=O)CCCCC(=O)OCc1ccccc1 (centres undefined) [Benzyloctyl adipate] | -0.155 ± 0.27% | -0.43 ± 0.37% | 0.101 ± 0.76% | -0.128 ± 1.1% | 1.13 ± 0.71% | 0.566 ± 0.22% | 0.4 ± 0.39% | 1.95 ± 0.065% |  |  |  |  |  |  |  | 
12 | O=c1[nH]c2ccc(S(=O)CCN3CCC(Cc4ccc(F)cc4)CC3)cc2o1 (centres undefined) [Besonprodil] | -2.69 ± 1.3% | -1.42 ± 0.9% | -1.87 ± 0.18% | -0.983 ± 0.15% | -0.767 ± 0.42% | -1.16 ± 0.83% | -1.7 ± 0.064% | 2.32 ± 2.9% |  |  |  |  |  |  |  | 
13 | COc1ccc(-c2ccccc2)cc1NNC(=O)OC(C)C [Bifenazate] | -1.53 ± 0.49% | -1.35 ± 0.97% | -1.03 ± 0.83% | -1.59 ± 0.54% | -1.11 ± 0.95% | -0.547 ± 1.4% | -0.468 ± 0.53% | 1.1 ± 1.1% |  |  |  |  |  |  |  | 
14 | Cc1c(COC(=O)C2C(C=C(Cl)C(F)(F)F)C2(C)C)cccc1-c1ccccc1 (centres undefined) [Bifenthrin] | -1.61 ± 1.9% | -2.22 ± 0.62% | -2.26 ± 0.28% | -2.12 ± 0.18% | -1.77 ± 0.75% | -1.98 ± 0.032% | -2.13 ± 0.62% | -0.496 ± 0.96% |  |  |  |  |  |  |  | 
15 | c1ccc(-c2ccccc2)cc1 [Biphenyl] | -3.64 ± 0.49% | -2.69 ± 0.98% | -2.88 ± 0.12% | -2.22 ± 0.45% | -2.07 ± 0.53% | -1.35 ± 0.15% | -1.49 ± 0.43% | 0.572 ± 0.68% |  |  |  |  |  |  |  | 
16 | ClCCOCCCl [Bis(2-chloroethyl) ether] | -2.26 ± 0.94% | -1.98 ± 0.48% | -2.69 ± 0.3% | -2.69 ± 0.29% | -1.96 ± 0.21% | -2.12 ± 0.39% | -2.25 ± 0.35% | -0.123 ± 0.23% |  |  |  |  |  |  |  | 
17 | CCCCC(CC)COC(=O)CCCCCCCCC(=O)OCC(CC)CCCC (centres undefined) [Bis(2-ethylhexyl) decanedioate] | -11.5 ± 0.13% | -10.5 ± 0.46% | -10.7 ± 0.93% | -10.2 ± 0.19% | -10.2 ± 0.27% | -10.1 ± 1.7% | -9.5 ± 0.95% | -8.97 ± 0.81% |  |  |  |  |  |  |  | 
18 | CCCCC(CC)COC(=O)CCCCCCCC(=O)OCC(CC)CCCC (centres undefined) [Bis(2-ethylhexyl) nonanedioate] | -1.88 ± 0.055% | -2.868 ± 0.0068% | -2.85 ± 0.81% | -3 ± 0.21% | -2.9 ± 0.15% | -2.46 ± 0.2% | -2.95 ± 0.69% | -1.1 ± 0.36% |  |  |  |  |  |  |  | 
